Measurements as given in the supplement of paper PMC10627819.

Assays:
S. aureus DSM 20231 [1] = test: fitness (endpoint OD595 vs no drug) (fraction); higher = more growth
Outline: (§1)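 In 384-well plates at 37 °C, cultures began at OD595 0.01 in 30 µl, with 55 µl used for S. pneumoniae. OD595 readings every 30 min for 14 h were corrected by the first reading. Fitness divides the stationary-phase transition optical density by the robust mean of no-drug control wells. The result is capped at 1.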

S. aureus Newman [2] = test: as above
Outline: as §1

S. pneumoniae D39V [3] = test: as above
Outline: as §1

B. subtilis 168 [4] = test: Bliss interaction score (quartile over a dose matrix) (fitness difference); higher = more antagonism (negative = synergy)
Outline: (§2)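 Combination data were used to infer fitness under each single drug. Fitness is the OD595 at entry into stationary phase divided by the robust mean of the plate's no-drug wells, with a cap of 1. The Bliss score is the observed minus the expected product fitness, summarised by quartiles over technical, biological and donor/recipient replicates.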

S. aureus DSM 20231 [5] = test: as above
Outline: as §2

S. aureus Newman [6] = test: as above
Outline: as §2

S. pneumoniae D39V [7] = test: as above
Outline: as §2

B. subtilis 168 [8] = test: fitness (endpoint OD595 vs no drug) (fraction); higher = more growth
Outline: as §1
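Wherever Bliss interaction score (quartile over a dose matrix) is given: first quartile when negative (synergy) and third quartile when positive (antagonism).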

CN[C@@H]1[C@H](O)[C@H](NC)[C@H]2O[C@@]3(O)C(=O)C[C@@H](C)O[C@H]3O[C@@H]2[C@H]1O [Spectinomycin] + CN[C@H](CC(C)C)C(=O)N[C@H]1C(=O)N[C@@H](CC(N)=O)C(=O)N[C@H]2C(=O)N[C@H]3C(=O)N[C@H](C(=O)N[C@H](C(=O)O)c4cc(O)cc(O)c4-c4cc3ccc4O)[C@H](O)c3ccc(c(Cl)c3)Oc3cc2cc(c3O[C@@H]2O[C@H](CO)[C@@H](O)[C@H](O)[C@H]2O[C@H]2C[C@](C)(N)[C@H](O)[C@H](C)O2)Oc2ccc(cc2Cl)[C@H]1O [Vancomycin]
fitness
Conditions | first compound 4 µg/mL | first compound 8 µg/mL | first compound 16 µg/mL
S. aureus DSM 20231 [1], partner 0.1875 µg/mL | 0.906 | 0.938 | 0.85
S. aureus DSM 20231 [1], partner 0.375 µg/mL | 0.898 | 0.893 | 0.774
S. aureus DSM 20231 [1], partner 0.75 µg/mL | ≥ 1 | 0.985 | 0.908
S. aureus Newman [2], partner 0.1875 µg/mL | 0.945 | 0.971 | 0.906
S. aureus Newman [2], partner 0.375 µg/mL | 0.916 | 0.979 | 0.921
S. aureus Newman [2], partner 0.75 µg/mL | 0.928 | 0.946 | 0.892
S. pneumoniae D39V [3], partner 0.03125 µg/mL | 0.979 | 0.933 | 0.835
S. pneumoniae D39V [3], partner 0.0625 µg/mL | 0.902 | 0.918 | 0.804
S. pneumoniae D39V [3], partner 0.125 µg/mL | – | 0.878 | –

fitness, one replicate
Conditions | partner 0.1875 µg/mL | partner 0.25 µg/mL | partner 0.375 µg/mL | partner 0.5 µg/mL | partner 0.75 µg/mL
S. aureus DSM 20231 [1], first compound 32 µg/mL | 0.741 | – | 0.74 | – | 0.737
S. aureus DSM 20231 [1], first compound 64 µg/mL | 0.0522 | – | 0.0729 | – | 0.0868
S. aureus Newman [2], first compound 32 µg/mL | 0.636 | – | 0.623 | – | 0.613
S. aureus Newman [2], first compound 64 µg/mL | 0.119 | – | 0.071 | – | 0.0594
S. pneumoniae D39V [3], first compound 4 µg/mL | – | 0.437 | – | 0.0734 | –
S. pneumoniae D39V [3], first compound 8 µg/mL | – | 0.293 | – | 0.0189 | –

Conditions | Bliss interaction score
B. subtilis 168 [4] | 0.0821
S. aureus DSM 20231 [5] | -0.059
S. aureus Newman [6] | 0.0699
S. pneumoniae D39V [7] | -0.0797

CN[C@@H]1[C@H](O)[C@H](NC)[C@H]2O[C@@]3(O)C(=O)C[C@@H](C)O[C@H]3O[C@@H]2[C@H]1O [Spectinomycin] + Cn1nnc(-c2ccc(-c3ccc(N4C[C@H](CO)OC4=O)cc3F)cn2)n1 [Tedizolid]
fitness
Conditions | first compound 4 µg/mL | first compound 8 µg/mL | first compound 16 µg/mL
S. aureus DSM 20231 [1], partner 0.0625 µg/mL | 0.964 | 0.916 | 0.744
S. aureus DSM 20231 [1], partner 0.125 µg/mL | 0.657 | 0.678 | 0.641
S. aureus DSM 20231 [1], partner 0.25 µg/mL | 0.257 | 0.225 | 0.199
S. aureus Newman [2], partner 0.0625 µg/mL | 0.922 | 0.939 | –
S. pneumoniae D39V [3], partner 0.03125 µg/mL | 0.87 | 0.914 | 0.78
S. pneumoniae D39V [3], partner 0.0625 µg/mL | 0.888 | 0.955 | 0.807
S. pneumoniae D39V [3], partner 0.125 µg/mL | 0.815 | 0.807 | 0.729

fitness, one replicate
Conditions | partner 0.0625 µg/mL | partner 0.125 µg/mL | partner 0.25 µg/mL | partner 0.5 µg/mL
S. aureus DSM 20231 [1], first compound 32 µg/mL | 0.406 | 0.202 | 0.0234 | –
S. aureus DSM 20231 [1], first compound 64 µg/mL | 0.0239 | 0.0268 | 0.0093 | –
S. aureus Newman [2], first compound 32 µg/mL | 0.101 | 0.0307 | 0.0315 | –
S. aureus Newman [2], first compound 64 µg/mL | 0.0254 | 0.023 | 0.0159 | –
S. pneumoniae D39V [3], first compound 4 µg/mL | – | – | 0.73 | 0.362
S. pneumoniae D39V [3], first compound 8 µg/mL | – | – | 0.724 | 0.416

Conditions | Bliss interaction score
B. subtilis 168 [4] | -0.0466
S. aureus DSM 20231 [5] | 0.0654
S. aureus Newman [6] | -0.111
S. pneumoniae D39V [7] | -0.0885

CC(=O)NC[C@H]1CN(c2ccc(N3CCOCC3)c(F)c2)C(=O)O1 [Linezolid] + CC1=C\[C@@H](O)CC(=O)Cc2nc(co2)C(=O)N2CCC=C2C(=O)O[C@H](C(C)C)[C@H](C)/C=C/C(=O)NC\C=C\1 [Virginiamycin M1]
one replicate
Conditions | fitness
B. subtilis 168 [8], first compound 0.0625 µg/mL, partner 0.0625 µg/mL | 0.851
B. subtilis 168 [8], first compound 0.0625 µg/mL, partner 0.125 µg/mL | 0.915
B. subtilis 168 [8], first compound 0.0625 µg/mL, partner 0.25 µg/mL | 0.879
S. aureus DSM 20231 [1], first compound 0.125 µg/mL, partner 0.5 µg/mL | 0.873
S. aureus DSM 20231 [1], first compound 0.125 µg/mL, partner 1 µg/mL | 0.759
S. aureus DSM 20231 [1], first compound 0.25 µg/mL, partner 0.5 µg/mL | 0.675
S. aureus DSM 20231 [1], first compound 0.25 µg/mL, partner 1 µg/mL | 0.63
S. aureus DSM 20231 [1], first compound 0.5 µg/mL, partner 0.5 µg/mL | 0.262
S. aureus DSM 20231 [1], first compound 0.5 µg/mL, partner 1 µg/mL | 0.296
S. aureus DSM 20231 [1], first compound 1 µg/mL, partner 0.0625 µg/mL | 0.0385
S. aureus DSM 20231 [1], first compound 1 µg/mL, partner 0.125 µg/mL | 0.0443
S. aureus DSM 20231 [1], first compound 1 µg/mL, partner 0.25 µg/mL | 0.0419
S. pneumoniae D39V [3], first compound 0.2 µg/mL, partner 0.15 µg/mL | 0.829
S. pneumoniae D39V [3], first compound 0.2 µg/mL, partner 0.3 µg/mL | 0.825
S. pneumoniae D39V [3], first compound 0.2 µg/mL, partner 0.5 µg/mL | 0.861
S. pneumoniae D39V [3], first compound 0.2 µg/mL, partner 1 µg/mL | 0.81
S. pneumoniae D39V [3], first compound 0.4 µg/mL, partner 0.15 µg/mL | 0.738
S. pneumoniae D39V [3], first compound 0.4 µg/mL, partner 0.3 µg/mL | 0.721
S. pneumoniae D39V [3], first compound 0.4 µg/mL, partner 0.5 µg/mL | 0.785
S. pneumoniae D39V [3], first compound 0.4 µg/mL, partner 1 µg/mL | 0.67
S. pneumoniae D39V [3], first compound 0.8 µg/mL, partner 0.15 µg/mL | 0.546
S. pneumoniae D39V [3], first compound 0.8 µg/mL, partner 0.3 µg/mL | 0.577
S. pneumoniae D39V [3], first compound 0.8 µg/mL, partner 0.5 µg/mL | 0.562
S. pneumoniae D39V [3], first compound 0.8 µg/mL, partner 1 µg/mL | 0.376

Conditions | fitness
B. subtilis 168 [8], first compound 0.125 µg/mL, partner 0.0625 µg/mL | 0.57
B. subtilis 168 [8], first compound 0.125 µg/mL, partner 0.125 µg/mL | 0.572
B. subtilis 168 [8], first compound 0.125 µg/mL, partner 0.25 µg/mL | 0.578
B. subtilis 168 [8], first compound 0.25 µg/mL, partner 0.0625 µg/mL | 0.0596
B. subtilis 168 [8], first compound 0.25 µg/mL, partner 0.125 µg/mL | 0.0652
B. subtilis 168 [8], first compound 0.25 µg/mL, partner 0.25 µg/mL | 0.0843
B. subtilis 168 [8], first compound 0.5 µg/mL, partner 0.0625 µg/mL | 0.0436
B. subtilis 168 [8], first compound 0.5 µg/mL, partner 0.125 µg/mL | 0.0429
B. subtilis 168 [8], first compound 0.5 µg/mL, partner 0.25 µg/mL | 0.0502
S. aureus DSM 20231 [1], first compound 0.125 µg/mL, partner 0.0625 µg/mL | 0.884
S. aureus DSM 20231 [1], first compound 0.125 µg/mL, partner 0.125 µg/mL | 0.951
S. aureus DSM 20231 [1], first compound 0.125 µg/mL, partner 0.25 µg/mL | 0.826
S. aureus DSM 20231 [1], first compound 0.25 µg/mL, partner 0.0625 µg/mL | 0.589
S. aureus DSM 20231 [1], first compound 0.25 µg/mL, partner 0.125 µg/mL | 0.614
S. aureus DSM 20231 [1], first compound 0.25 µg/mL, partner 0.25 µg/mL | 0.638
S. aureus DSM 20231 [1], first compound 0.5 µg/mL, partner 0.0625 µg/mL | 0.186
S. aureus DSM 20231 [1], first compound 0.5 µg/mL, partner 0.125 µg/mL | 0.156
S. aureus DSM 20231 [1], first compound 0.5 µg/mL, partner 0.25 µg/mL | 0.196
S. pneumoniae D39V [3], first compound 0.105 µg/mL, partner 0.5 µg/mL | 0.849
S. pneumoniae D39V [3], first compound 0.105 µg/mL, partner 1 µg/mL | 0.881
S. pneumoniae D39V [3], first compound 0.105 µg/mL, partner 2 µg/mL | 0.856
S. pneumoniae D39V [3], first compound 0.2 µg/mL, partner 2 µg/mL | 0.775
S. pneumoniae D39V [3], first compound 0.21 µg/mL, partner 0.5 µg/mL | 0.763
S. pneumoniae D39V [3], first compound 0.21 µg/mL, partner 1 µg/mL | 0.756
S. pneumoniae D39V [3], first compound 0.21 µg/mL, partner 2 µg/mL | 0.769
S. pneumoniae D39V [3], first compound 0.4 µg/mL, partner 2 µg/mL | 0.677
S. pneumoniae D39V [3], first compound 0.42 µg/mL, partner 0.5 µg/mL | 0.496
S. pneumoniae D39V [3], first compound 0.42 µg/mL, partner 1 µg/mL | 0.486
S. pneumoniae D39V [3], first compound 0.42 µg/mL, partner 2 µg/mL | 0.39
S. pneumoniae D39V [3], first compound 0.8 µg/mL, partner 2 µg/mL | 0.458

Conditions | Bliss interaction score
B. subtilis 168 [4] | 0.0733
S. aureus DSM 20231 [5] | 0.0505
S. aureus Newman [6] | 0.0286
S. pneumoniae D39V [7] | -0.0638
